Data: ChEMBL document CHEMBL5512673, “Secondary Structure Stabilization of Macrocyclic Antimicrobial Peptides via Cross-Link Swapping” (J Med Chem, 2024)
pIC50: −log10 of the molar value. Converted amounts (≈) assume the structure as drawn. The source made the active and inactive calls. No cut-off for these calls is given here. Bridge positions count the residues as written; N and C are the ends. Square brackets hold non-standard residues; d marks the D form. Peptide text beside a SMILES is read from it. Dab = NCC[C@H](N)C(=O)O; Dap = NC[C@H](N)C(=O)O

Experiments:
Escherichia coli [1] = assay: Antibacterial activity against Escherichia coli NEB 5alpha assessed as aggregation of bacteria into flakes at 2 to 50 uM incubated for 4 hrs by bacterial flocculation assay; assay type: functional, organism-based; conditions: dose 2-50 µM
Escherichia coli [2] = assay: Antibacterial activity against Escherichia coli assessed as reduction in bacterial cell viability incubated for 24 hrs by nutrient agar plate method; assay type: functional, organism-based
[3] = system: Staphylococcus epidermidis; assay: Antibacterial activity against Staphylococcus epidermidis assessed as inhibition of bacterial growth incubated for 24 hrs by nutrient agar plate method; assay type: functional
Micrococcus luteus [4] = assay: Antibacterial activity against Micrococcus luteus assessed as reduction in bacterial cell viability incubated for 24 hrs by nutrient agar plate method; assay type: functional, organism-based
RAW264.7 [5] = assay: Upregulation of IL-1beta production in mouse RAW264.7 cells at 50 uM incubated for 24 hrs by ELISA; assay type: functional, cell-based
Bacillus subtilis [6] = assay: Antibacterial activity against Bacillus subtilis assessed as reduction in bacterial cell viability incubated for 24 hrs by nutrient agar plate method; assay type: functional, organism-based
RAW264.7 [7] = assay: Effect on IL-10 release in mouse RAW264.7 cells at 50 uM incubated for 24 hrs by ELISA; assay type: functional, cell-based
Escherichia coli [8] = assay: Antibacterial activity against Escherichia coli assessed as inhibition of bacterial growth incubated for 24 hrs by nutrient agar plate method; assay type: functional
Bacillus subtilis [9] = assay: Antibacterial activity against Bacillus subtilis assessed as inhibition of bacterial growth incubated for 24 hrs by nutrient agar plate method; assay type: functional
Bacillus subtilis [10] = assay: Antibacterial activity against Bacillus subtilis ATCC 6051 assessed as aggregation of bacteria into flakes at 2 to 50 uM incubated for 4 hrs by bacterial flocculation assay; assay type: functional, organism-based; conditions: dose 2-50 µM
[11] = Aggregation property of compound in aqueous solution assessed as critical micelle concentration by dynamic light scattering analysis; assay type: physicochemical; conditions: buffer
Micrococcus luteus [12] = assay: Antibacterial activity against Micrococcus luteus assessed as inhibition of bacterial growth incubated for 24 hrs by nutrient agar plate method; assay type: functional
RAW264.7 [13] = assay: Anti-inflammatory activity in mouse RAW264.7 cells assessed as reduction in LPS-induced IL-1beta production at 50 uM incubated for 24 hrs by ELISA; assay type: functional, cell-based
RAW264.7 [14] = assay: Cytotoxicity against mouse RAW264.7 cells assessed as reduction in cell viability at 100 uM incubated for 24 hrs by MTS assay; assay type: toxicity, cell-based; conditions: raw264.7, 24 h
RAW264.7 [15] = assay: Anti-inflammatory activity in mouse RAW264.7 cells assessed as reduction in LPS-induced IL-10 production at 50 uM incubated for 24 hrs by ELISA; assay type: functional, cell-based
[16] = system: Staphylococcus epidermidis; assay: Antibacterial activity against Staphylococcus epidermidis assessed as reduction in bacterial cell viability incubated for 24 hrs by nutrient agar plate method; assay type: functional, organism-based
Trypsin = Trypsin (Homo sapiens, UniProt P07477+P07478+P35030); assay: Stability of compound in PBS at […] assessed as trypsin (unknown origin)-mediated drug degradation measured after 3 to 60 mins using TAMRA-labelled compound by HPLC analysis; assay type: ADME, protein assay; conditions: buffer, time 3-60 min

SMILES	Activity (Escherichia coli [1])	pIC50 (Escherichia coli [2])	MIC [3] [µM]	pIC50 (Micrococcus luteus [4])	Activity (RAW264.7 [5])	pIC50 (Bacillus subtilis [6])	Activity (RAW264.7 [7])	MIC (Escherichia coli [8]) [µM]	MIC (Bacillus subtilis [9]) [µM]	Activity (Bacillus subtilis [10])	CMC [11] [µM]	MIC (Micrococcus luteus [12]) [µM]	Activity (RAW264.7 [13])	Activity (RAW264.7 [14])	Activity (RAW264.7 [15])	pIC50 [16]	Stability (Trypsin)
CC[C@H](C)[C@@H]1NC(=O)[C@H](CCCNC(=N)N)NC(=O)[C@H](Cc2ccccc2)NC(=O)[C@H](CCCCN)NC(=O)[C@H](Cc2ccccc2)NC(=O)[C@H](CCCNC(=N)N)NC(=O)[C@@H](N)CCNC(=O)CC[C@@H](C(N)=O)NC(=O)[C@H]([C@@H](C)CC)NC(=O)[C@H](C(C)C)NC1=O (H-[Dab]RFKFRIVIE-NH2; lactam 1-10)	Active	4.97	20 (≈ 25.8 µg/mL)	4.74	Active	4.81	Active	40 (≈ 51.5 µg/mL)	60 (≈ 77.3 µg/mL)	Active	> 100	80 (≈ 103 µg/mL)	inactive	Non-Toxic	inactive	5.41	
CC[C@H](C)[C@@H]1NC(=O)[C@H](CCCNC(=N)N)NC(=O)[C@H](Cc2ccccc2)NC(=O)[C@H](CCCCN)NC(=O)[C@H](Cc2ccccc2)NC(=O)[C@H](CCCNC(=N)N)NC(=O)[C@@H](N)CSSC[C@@H](C(N)=O)NC(=O)[C@H]([C@@H](C)CC)NC(=O)[C@H](C(C)C)NC1=O (H-CRFKFRIVIC-NH2; disulfide 1-10)	Active	4.49	50 (≈ 64.1 µg/mL)		Active	3.34	Active	80 (≈ 103 µg/mL)	100 (≈ 128 µg/mL)	Active	4.5		Active	Non-Toxic	Active	5.07	
CC1(C)S[C@@H]2[C@H](NC(=O)[C@H](N)c3ccccc3)C(=O)N2[C@H]1C(=O)O [AMPICILLIN]		5.82	50 (≈ 17.5 µg/mL)	5.96		6.00		12.5 (≈ 4.37 µg/mL)	25 (≈ 8.74 µg/mL)			3.1 (≈ 1.08 µg/mL)				5.07	
CC[C@H](C)[C@@H]1NC(=O)[C@H](CCCNC(=N)N)NC(=O)[C@H](Cc2ccccc2)NC(=O)[C@H](CCCCN)NC(=O)[C@H](Cc2ccccc2)NC(=O)[C@H](CCCNC(=N)N)NC(=O)[C@@H](N)CNC(=O)CC[C@@H](C(N)=O)NC(=O)[C@H]([C@@H](C)CC)NC(=O)[C@H](C(C)C)NC1=O (H-[Dap]RFKFRIVIE-NH2; lactam 1-10)	Active	4.44	40 (≈ 51 µg/mL)		Active	4.44	Active	100 (≈ 127 µg/mL)	100 (≈ 127 µg/mL)	Active	2.3		Active	Non-Toxic	Active	5.14	
CC[C@H](C)[C@@H]1NC(=O)[C@H](CCCNC(=N)N)NC(=O)[C@H](Cc2ccccc2)NC(=O)[C@H](CCCCN)NC(=O)[C@H](Cc2ccccc2)NC(=O)[C@H](CCCNC(=N)N)NC(=O)[C@@H](N)CCC(=O)NC[C@@H](C(N)=O)NC(=O)[C@H]([C@@H](C)CC)NC(=O)[C@H](C(C)C)NC1=O (H-ERFKFRIVI[Dap]-NH2; lactam 1-10)	Active	4.38	40 (≈ 51 µg/mL)		Active	4.41	Active	80 (≈ 102 µg/mL)	100 (≈ 127 µg/mL)	Active	10.8		Active	Non-Toxic	Active	4.99	
CN(C)c1ccc2c(-c3ccc(C(=O)N[C@@H](Cc4ccc(O)cc4)C(=O)NCC(=O)N[C@@H](CCCNC(=N)N)C(=O)N[C@@H](CCCCN)C(=O)N[C@@H](CCCCN)C(=O)N[C@@H](CCCNC(=N)N)C(=O)N[C@@H](CCCNC(=N)N)C(=O)N[C@@H](CCC(N)=O)C(=O)N[C@@H](CCCNC(=N)N)C(=O)N[C@@H](CCCNC(=N)N)C(=O)N[C@@H](CCCNC(=N)N)C(=O)O)cc3C(=O)[O-])c3ccc(=[N+](C)C)cc-3oc2c1																	Unstable
CC[C@H](C)[C@@H]1NC(=O)[C@H](CCCNC(=N)N)NC(=O)[C@H](Cc2ccccc2)NC(=O)[C@H](CCCCN)NC(=O)[C@H](Cc2ccccc2)NC(=O)[C@H](CCCNC(=N)N)NC(=O)[C@@H](N)CCC(=O)NCC[C@@H](C(N)=O)NC(=O)[C@H]([C@@H](C)CC)NC(=O)[C@H](C(C)C)NC1=O (H-ERFKFRIVI[Dab]-NH2; lactam 1-10)	Active	5.07	20 (≈ 25.8 µg/mL)	4.95	Active	4.82	Active	40 (≈ 51.5 µg/mL)	60 (≈ 77.3 µg/mL)	Active	> 100	80 (≈ 103 µg/mL)	inactive	Non-Toxic	inactive	5.46	
